This is an account of results in ChEMBL document CHEMBL1201862, “PubChem BioAssay data set” (2004).

Each structure is given as a SMILES string. Active and inactive are the calls of the source. A value given as a limit tells only on which side of the number the result lay.

A short description of assay [1]: StAR promoter reporter inhibition counter-screen, dose response, counter-screen for LRH-1 inverse agonist project, cell-based, luminescence, luciferase reporter (AID 651969). The class given is functional.
The target in assay [2] is Steroidogenic factor 1 (Homo sapiens, UniProt Q13285). Description: Counterscreen for inverse agonists of the liver receptor homolog-1 (LRH-1; NR5A2): Luminescence-based cell-based high throughput dose response assay to identify inverse agonists of the Steroidogenic Factor 1 Nuclear Receptor (SF1; NR5A1). The class given is functional. For orientation: A counterscreen serves to expose hits that act by an unwanted route or on another target.

Assay [3] concerns the target Nuclear receptor subfamily 5 group A member 2 (Homo sapiens, UniProt O00482). Format: functional, cell-based.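 Further: HEK293T cells transfected with LRH-1 and a StAR promoter luciferase reporter; potency for inhibitors that lower LRH-1 driven reporter light.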
Assay [4] addresses T1, Corticotropin-releasing factor receptor 2/Corticotropin-releasing factor-binding protein (Homo sapiens, UniProt P24387+Q13324).
T1 sequence (Q13324 whole entry): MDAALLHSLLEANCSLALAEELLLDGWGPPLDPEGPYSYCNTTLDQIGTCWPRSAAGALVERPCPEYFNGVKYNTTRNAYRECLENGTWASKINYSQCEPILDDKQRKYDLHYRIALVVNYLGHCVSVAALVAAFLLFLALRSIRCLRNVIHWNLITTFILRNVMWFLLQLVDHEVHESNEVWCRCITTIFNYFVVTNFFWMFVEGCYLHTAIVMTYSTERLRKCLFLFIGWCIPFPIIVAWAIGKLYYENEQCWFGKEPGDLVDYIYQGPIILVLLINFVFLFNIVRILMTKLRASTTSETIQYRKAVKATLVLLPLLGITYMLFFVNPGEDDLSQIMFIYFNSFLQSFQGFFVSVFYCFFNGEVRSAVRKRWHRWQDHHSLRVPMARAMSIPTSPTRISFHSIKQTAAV
T1 sequence (P24387 whole entry): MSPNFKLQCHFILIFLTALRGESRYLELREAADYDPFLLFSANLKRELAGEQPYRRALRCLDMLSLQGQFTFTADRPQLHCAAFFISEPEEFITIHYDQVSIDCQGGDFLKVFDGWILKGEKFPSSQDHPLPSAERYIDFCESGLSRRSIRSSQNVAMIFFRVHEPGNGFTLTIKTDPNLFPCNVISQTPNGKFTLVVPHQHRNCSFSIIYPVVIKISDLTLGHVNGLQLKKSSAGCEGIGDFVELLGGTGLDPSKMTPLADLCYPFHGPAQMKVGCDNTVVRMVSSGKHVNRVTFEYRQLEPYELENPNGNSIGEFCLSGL
Briefly: activators of CRF receptor 2 with binding protein – uHTS hits, confirmation (AID 602473). Format: functional. The conditions noted are these: read-out: EC50_Mean.

In assay [5] the target is T1, Corticotropin-releasing factor receptor 2/Corticotropin-releasing factor-binding protein. Briefly: Dose Response confirmation of uHTS hits for small molecule antagonists of the CRF-binding protein and CRF-R2 receptor complex. The conditions noted are these: read-out: IC50_Mean. The class given is functional.
The nature of assay [6]: CRF-BP/CRF-R2 complex antagonists, dose response, cell-based, uHTS hits, 384-well (AID 651639). The class given is functional, Homo sapiens. As to conditions: read-out: IC50_Mean.
The target of assay [7] is T2, Small ubiquitin-related modifier 1 (Homo sapiens, UniProt P63165). Briefly: inhibitors of SUMO1 peptide binding, dose response, biochemical, fluorescence polarization, uHTS hits (AID 624382). Format: functional. The conditions noted are these: read-out: IC50_Mean. (Polarisation of emitted light reports the rotation of a fluorescent probe.)
Assay [8] has as its target T2, Small ubiquitin-related modifier 1. Description: inhibitors of SUMO1 partner interactions, dose response, biochemical, FRET (AID 624383). The conditions noted are these: read-out: IC50_Mean. Format: functional.
Assay [9] can be described thus: HeLa cell cytotoxicity, dose response, cytotoxicity control for MgcRacGAP inhibitor project (AID 624300). The class given is functional.
The target of assay [10] is T3, Rac GTPase-activating protein 1 (Homo sapiens, UniProt Q9H0H5).
T3 sequence (Q9H0H5 whole entry): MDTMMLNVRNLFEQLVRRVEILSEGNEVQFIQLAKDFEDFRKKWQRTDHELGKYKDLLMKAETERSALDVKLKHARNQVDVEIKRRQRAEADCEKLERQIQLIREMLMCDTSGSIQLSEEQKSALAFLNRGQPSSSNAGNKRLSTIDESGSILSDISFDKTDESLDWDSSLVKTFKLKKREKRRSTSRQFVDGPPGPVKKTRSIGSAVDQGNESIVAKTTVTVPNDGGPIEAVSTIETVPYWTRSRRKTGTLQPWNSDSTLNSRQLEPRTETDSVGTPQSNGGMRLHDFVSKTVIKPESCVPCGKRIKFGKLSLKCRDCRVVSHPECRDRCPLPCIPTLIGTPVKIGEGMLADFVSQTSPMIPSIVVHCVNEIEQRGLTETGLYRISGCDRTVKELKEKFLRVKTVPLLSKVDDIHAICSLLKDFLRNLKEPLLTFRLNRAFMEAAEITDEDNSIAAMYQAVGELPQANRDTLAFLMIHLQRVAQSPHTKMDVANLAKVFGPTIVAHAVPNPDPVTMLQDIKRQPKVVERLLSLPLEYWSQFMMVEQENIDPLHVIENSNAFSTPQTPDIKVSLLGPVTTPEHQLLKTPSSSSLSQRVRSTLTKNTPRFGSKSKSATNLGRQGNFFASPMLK
Description: MgcRacGAP GTPase-activating activity inhibitors, confirmation, biochemical, ADP Hunter fluorescence, primary and confirmatory (AID 624330). The class given is functional.

For assay [11], the target named is T4, Sentrin-specific protease 1 (Homo sapiens, UniProt Q9P0U3).
T4 sequence (Q9P0U3 whole entry): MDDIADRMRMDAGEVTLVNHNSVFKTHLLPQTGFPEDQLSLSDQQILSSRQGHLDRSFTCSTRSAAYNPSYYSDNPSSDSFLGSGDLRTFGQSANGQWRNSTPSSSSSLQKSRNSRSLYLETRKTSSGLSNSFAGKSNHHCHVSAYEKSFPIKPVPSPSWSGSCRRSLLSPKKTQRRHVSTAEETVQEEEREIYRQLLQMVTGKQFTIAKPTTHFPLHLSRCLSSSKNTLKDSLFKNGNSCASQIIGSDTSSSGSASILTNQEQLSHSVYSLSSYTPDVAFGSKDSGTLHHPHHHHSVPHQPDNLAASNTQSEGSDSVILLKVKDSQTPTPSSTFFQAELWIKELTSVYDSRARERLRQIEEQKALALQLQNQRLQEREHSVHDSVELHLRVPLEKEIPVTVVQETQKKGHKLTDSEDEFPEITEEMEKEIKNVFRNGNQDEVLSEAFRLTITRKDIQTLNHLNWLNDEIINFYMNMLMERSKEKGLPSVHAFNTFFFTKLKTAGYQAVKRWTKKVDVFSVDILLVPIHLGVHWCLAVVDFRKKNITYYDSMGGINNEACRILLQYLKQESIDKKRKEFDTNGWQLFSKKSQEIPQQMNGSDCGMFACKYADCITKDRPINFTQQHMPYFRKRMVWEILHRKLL
Briefly: Dose response confirmation of small molecule inhibitors of the catalytic domain of the SUMO protease, SENP1 in a FRET assay. The class given is functional. The conditions noted are these: read-out: IC50_Mean.

The target of assay [12] is T4, Sentrin-specific protease 1. Description: potency of human SENP1 inhibitors, dose response, biochemical, kinetic FRET (AID 651697). The class given is functional. The conditions noted are these: read-out: IC50_Mean.
Assay [13] has as its target T5, Leucine aminopeptidase (Plasmodium falciparum 3D7, UniProt Q8IL11).
T5 sequence (Q8IL11 whole entry): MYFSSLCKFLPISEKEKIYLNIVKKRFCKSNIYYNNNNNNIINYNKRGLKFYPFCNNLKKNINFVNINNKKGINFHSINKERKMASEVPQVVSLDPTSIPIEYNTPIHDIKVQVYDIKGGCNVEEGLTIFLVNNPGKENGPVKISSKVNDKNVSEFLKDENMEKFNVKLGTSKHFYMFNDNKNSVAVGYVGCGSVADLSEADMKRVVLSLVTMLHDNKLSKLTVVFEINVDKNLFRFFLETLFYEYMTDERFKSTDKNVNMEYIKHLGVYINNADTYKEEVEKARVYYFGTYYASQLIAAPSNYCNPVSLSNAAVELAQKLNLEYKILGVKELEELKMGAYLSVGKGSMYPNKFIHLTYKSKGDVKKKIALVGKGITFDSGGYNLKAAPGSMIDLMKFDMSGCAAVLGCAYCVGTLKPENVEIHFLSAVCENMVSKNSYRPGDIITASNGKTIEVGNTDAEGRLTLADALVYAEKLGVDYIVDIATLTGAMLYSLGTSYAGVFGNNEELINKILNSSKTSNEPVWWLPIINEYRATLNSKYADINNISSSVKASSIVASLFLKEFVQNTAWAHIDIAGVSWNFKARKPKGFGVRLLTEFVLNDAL
Briefly: P. falciparum M17LAP inhibitors, primary screen, biochemical, fluorogenic H-Leu-NHMec substrate, 1536-well (AID 1619). Format: functional.

The target of assay [14] is Genome polyprotein (dengue virus type 2, UniProt P29990). Briefly: Dengue-2 NS5 methyltransferase inhibitors, primary screen, biochemical, confirmation dose response (AID 588689). Format: functional.
The test system of assay [15] is Vero. Description: Vero cell cytotoxicity, cytotoxicity control for flavivirus capping enzyme inhibitors (AID 588742). As to conditions: Chlorocebus sabaeus. Format: functional.
Assay [16] concerns the target Photoreceptor-specific nuclear receptor (Homo sapiens, UniProt Q9Y5X4). Format: functional, cell-based.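 Further: CHO-S cells with Gal4-NCOR and VP16-NR2E3 two-hybrid luciferase reporter.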
For assay [17], the system named is HEK293. Description: cells. The class given is functional, cell-based. The conditions noted are these: Homo sapiens.
The test system of assay [18] is HEK293. Briefly: cells. The class given is functional, cell-based. As to conditions: Homo sapiens. The source holds these as a separate data set.
For assay [19], the system named is HEK293. Description: NOD2 signaling inhibitors in MDP-stimulated cells, cell-based, uHTS, luminescence (AID 2001). The class given is functional. As to conditions: Homo sapiens.
In assay [20] the test system is HEK293. Briefly: NOD1 signaling inhibitors, primary screen, cell-based, luminescence, uHTS (AID 1578). The class given is functional. As to conditions: Homo sapiens.

Nuclear receptor subfamily 5 group A member 2, sequence (O00482 whole entry): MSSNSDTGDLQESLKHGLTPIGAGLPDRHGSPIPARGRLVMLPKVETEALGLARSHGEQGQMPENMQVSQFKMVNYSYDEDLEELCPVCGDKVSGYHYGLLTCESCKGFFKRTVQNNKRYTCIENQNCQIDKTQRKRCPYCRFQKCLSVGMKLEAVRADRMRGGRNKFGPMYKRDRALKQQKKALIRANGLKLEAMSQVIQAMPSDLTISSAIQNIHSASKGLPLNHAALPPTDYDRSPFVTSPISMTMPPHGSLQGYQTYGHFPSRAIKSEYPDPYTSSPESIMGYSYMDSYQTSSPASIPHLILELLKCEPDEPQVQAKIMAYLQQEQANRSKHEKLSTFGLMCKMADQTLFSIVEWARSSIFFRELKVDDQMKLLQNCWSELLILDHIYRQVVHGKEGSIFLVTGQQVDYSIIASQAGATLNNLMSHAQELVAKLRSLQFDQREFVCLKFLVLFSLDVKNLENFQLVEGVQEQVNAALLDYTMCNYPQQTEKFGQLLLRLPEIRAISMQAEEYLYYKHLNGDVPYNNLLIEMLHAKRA
Steroidogenic factor 1, sequence (Q13285 whole entry): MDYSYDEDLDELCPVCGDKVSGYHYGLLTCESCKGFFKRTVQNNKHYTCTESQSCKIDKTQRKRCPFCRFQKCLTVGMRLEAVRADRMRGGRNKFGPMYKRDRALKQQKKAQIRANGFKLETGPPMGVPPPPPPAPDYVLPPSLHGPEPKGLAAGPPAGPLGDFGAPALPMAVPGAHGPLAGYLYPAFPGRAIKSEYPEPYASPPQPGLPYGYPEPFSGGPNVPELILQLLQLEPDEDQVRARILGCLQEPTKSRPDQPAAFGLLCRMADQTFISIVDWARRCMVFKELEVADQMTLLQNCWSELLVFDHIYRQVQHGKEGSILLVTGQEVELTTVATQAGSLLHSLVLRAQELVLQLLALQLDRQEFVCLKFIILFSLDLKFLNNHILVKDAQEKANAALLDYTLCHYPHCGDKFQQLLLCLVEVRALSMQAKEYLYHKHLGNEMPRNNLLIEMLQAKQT
T2 sequence (P63165 whole entry): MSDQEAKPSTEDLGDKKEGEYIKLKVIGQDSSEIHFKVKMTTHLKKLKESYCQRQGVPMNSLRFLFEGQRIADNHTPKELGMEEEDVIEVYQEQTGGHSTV
Genome polyprotein, sequence (P29990 2492-3391 limits assumed): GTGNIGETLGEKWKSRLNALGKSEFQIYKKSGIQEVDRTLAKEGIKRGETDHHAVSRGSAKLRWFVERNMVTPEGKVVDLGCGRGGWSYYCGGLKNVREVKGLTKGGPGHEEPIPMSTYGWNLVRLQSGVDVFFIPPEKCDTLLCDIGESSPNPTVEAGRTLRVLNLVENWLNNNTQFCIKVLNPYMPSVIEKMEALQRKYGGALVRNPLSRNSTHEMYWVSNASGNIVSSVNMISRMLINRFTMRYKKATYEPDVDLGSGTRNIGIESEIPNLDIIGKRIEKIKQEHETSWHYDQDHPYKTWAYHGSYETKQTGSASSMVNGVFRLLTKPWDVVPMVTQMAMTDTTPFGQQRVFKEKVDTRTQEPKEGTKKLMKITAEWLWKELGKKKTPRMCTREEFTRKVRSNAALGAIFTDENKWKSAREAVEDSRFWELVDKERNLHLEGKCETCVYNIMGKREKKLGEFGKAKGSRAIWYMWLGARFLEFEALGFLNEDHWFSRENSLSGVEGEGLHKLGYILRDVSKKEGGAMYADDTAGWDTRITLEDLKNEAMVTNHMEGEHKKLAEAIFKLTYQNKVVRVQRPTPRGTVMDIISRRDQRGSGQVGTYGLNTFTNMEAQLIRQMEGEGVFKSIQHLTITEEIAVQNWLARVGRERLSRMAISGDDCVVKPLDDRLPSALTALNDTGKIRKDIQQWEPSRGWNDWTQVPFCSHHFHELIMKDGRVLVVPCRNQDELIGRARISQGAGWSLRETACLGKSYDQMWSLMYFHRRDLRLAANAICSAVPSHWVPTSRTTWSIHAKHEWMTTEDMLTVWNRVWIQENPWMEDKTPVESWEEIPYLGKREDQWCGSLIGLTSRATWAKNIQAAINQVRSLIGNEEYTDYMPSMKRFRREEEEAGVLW
Photoreceptor-specific nuclear receptor, sequence (Q9Y5X4 whole entry, the tested form may be a part): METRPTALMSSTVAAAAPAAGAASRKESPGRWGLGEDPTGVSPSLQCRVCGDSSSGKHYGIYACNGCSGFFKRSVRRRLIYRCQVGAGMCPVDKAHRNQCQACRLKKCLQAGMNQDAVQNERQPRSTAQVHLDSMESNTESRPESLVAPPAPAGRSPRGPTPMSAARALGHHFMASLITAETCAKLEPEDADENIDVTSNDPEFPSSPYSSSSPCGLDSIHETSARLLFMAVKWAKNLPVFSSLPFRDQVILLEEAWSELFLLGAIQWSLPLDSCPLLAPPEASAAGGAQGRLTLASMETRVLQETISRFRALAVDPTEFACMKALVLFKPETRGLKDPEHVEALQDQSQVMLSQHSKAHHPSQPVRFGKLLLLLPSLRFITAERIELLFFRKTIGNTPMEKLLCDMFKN

`COc1cccc(C(=O)COc2cccc(NC(=O)c3cccc([N+](=O)[O-])c3)c2)c1`: the results for the IC50 in assay [1], in [2] and in [3] were 10.9 µM (inactive), 0.443 µM (active) and 0.443 µM (active), respectively.
As for `Cc1ccccc1Cn1nc(C)c(NC(=O)c2cc(-c3cccs3)on2)c1C`, the EC50 in [4] is > 53 µM (inactive). Moreover, the IC50 in assay [5] was 39.1 µM (active); in assay [6], > 20 µM (inactive).
Take `COC(=O)c1ccc(NC(=O)CSc2nn3c(=O)c(C)nnc3s2)cc1`: the IC50 in [1], in assay [2] and in [3] was 35.9 µM (inactive) each time.
In the case of `Cc1ccc(S(=O)(=O)N2CCOCC2)cc1C(=O)OCC(=O)Nc1ccc2[nH]c(O)nc2c1`, the IC50 in assay [7] is > 66.6 µM (inactive); in assay [8] it was 11.4 µM (active).
As to `CCOc1cc(/C=C2\C(=O)N(CCc3ccc(OC)c(OC)c3)C(C)=C2C(=O)OC)ccc1O`, the CC50 (commonly the concentration that lowers cell viability or growth by half) in assay [9] was 100 µM (active). In addition, the IC50 in assay [10] was 118 µM (active).
As to `COc1cccc(C2(c3cccc(OC)c3)CC2C(=O)Nc2ccccc2Cl)c1` (stereo not drawn), the EC50 in assay [4] is > 53 µM (inactive). For the same molecule, the IC50 in [5] was 3.83 µM (active); in assay [6], > 20 µM (inactive).
Regarding `COc1cc(/C=C2\SC(=S)N(CC(=O)O)C2=O)ccc1OC(=O)c1ccco1`, the IC50 was 7.29 µM (active) in [11] and 4.52 µM (active) in assay [12].
With `COc1ccccc1NN=C1C(=O)NC(=S)NC1=O`, the IC50 in assay [11] is 18 µM (active); in assay [12] it was 23.3 µM (inactive).
In the case of `O=C(NCC1CCCO1)c1sc(=S)n2c1[nH]c(=O)c1ccc(C(=O)N3CCCCC3)cc12` (stereo not drawn), the IC50 in [13] is 65.4 µM (active); in assay [11], 21.1 µM (inactive); in assay [12], 51.1 µM (inactive).
As for `Cc1ccc(S(=O)(=O)N2[C@@H](c3ccc(Br)cc3)C(C(=O)O)=CC[C@H]2c2ccc(Cl)c(Cl)c2)cc1`, the IC50 in assay [14] is 42.9 µM (active); in assay [7], > 66.6 µM (inactive); in assay [8], 6.25 µM (active); in [16], 5.2 µM (active). For the same molecule, in [15], the CC50 was > 40 µM (active).
Turning to `CCCc1nnc(SCC(=O)Nc2ccc(OC)cc2)o1`, the IC50 in [1] is 35.9 µM (inactive); in assay [2] it was 15.5 µM (inactive); in [3] it was 6.68 µM (active).
Regarding `C/C(=N\NC(=O)c1cc(Cl)ccc1O)c1ccc(Br)s1`, the EC50 was > 53 µM (inactive) in assay [4] and 1.93 µM (active) in assay [20]. The IC50 in assay [5] was < 0.368 µM (active); in assay [17], 5.47 µM (active); in [6], > 20 µM (inactive); in [18], > 20 µM (inactive); in assay [19], 6.21 µM (inactive).
